For one assay, the system named is encapsulated islets. The class given is cell-based. The following applies: hybrid alginate capsules with 2 mg/ml dexamethasone or 1 mg/ml curcumin, 4 days co-culture, FIG. 5. The method, then:
(§1) RAW 264.7 macrophages were cultured in RPMI-1640 medium supplemented with 10% FBS, 100 units/ml penicillin and 100 μg/ml streptomycin (Invitrogen). The cells were sub-cultured every 2-3 days. 0.2 million macrophages in 3 ml of fresh culture medium were seeded into each well of a six-well tissue-culture treated polystyrene plate and allowed to adhere to the plate surface over night. The culture medium was removed and encapsulated islets were added in 3 ml of fresh medium to each well with adherent macrophages. Co-culturing of encapsulated islets with macrophages was maintained for four days. Afterwards, supernatant samples were collected and frozen at −20° C. for future insulin analysis with an insulin ELISA kit (ALPCO diagnostics). Encapsulated islets were collected into new plates. Both encapsulated islets and remaining adherent macrophages were washed in HEPES buffer and subjected to live-dead fluorescent staining (Invitrogen) for viability assessment.
(§2) An in vitro experiment was designed to test whether the presence of immune cells affects insulin secretion by islets. Hybrid alginate capsules containing islet cells and 2 mg/ml of dexamethasone or 1 mg/ml of curcumin were fabricated. Islet cells were encapsulated alone as a positive control. As a negative control, encapsulated islets were co-cultured with a macrophage cell line adherent to the plate's bottom. […]

The next assay has as its system RAW 264.7 macrophages. The experiment in a line: Co-culture of macrophages and encapsulated islets: macrophage proliferation. The class given is cell-based. The following applies: hybrid alginate capsules with 2 mg/ml dexamethasone or 1 mg/ml curcumin, 4 days co-culture. The method, then: as §1, §2
Assay [1] concerns C57/B6 mice with streptozotocin (STZ)-induced diabetes. The experiment in a line: Transplantation of encapsulated rat islets into STZ-induced diabetic mice, daily blood glucose monitoring. The class given is in vivo. To be noted: daily blood glucose over 2 months, marginal mass of islets, intraperitoneal, n=6-7.
Description: Alginate with high gluronic acid content SLG20 (Novamatrix, FMC Polymer, Drammen, Norway) was dissolved in sterile 0.9% (w/v) NaCl to give an alginate solution of 1.5% (w/v). To prepare hybrid drug-islet capsule, 1.5% (w/v) alginate was mixed with curcumin (Sigma Aldrich) at 0.3-1.0 mg/ml or with dexamethasone (Sigma Aldrich) at 1-2 mg/ml and stirred for 3-4 days to ensure that the drug is homogenously dispersed. During this mixing period, curcumin-alginate mixture was wrapped in aluminium foil to avoid light exposure which might oxidize this drug. One day after islet isolation, islets were washed twice with Ca-free Krebs and mixed with the alginate suspension with or without dispersed drug at a pre-cross-linking islet density of approximately 750-1000 islets/ml. […]
Male Sprague—Dawley rats, 200-250 g, also obtained from Charles River Laboratories, were used as islet donors. […] The mice were observed daily till after the final STZ injection when they are weighed and their blood glucose levels determined. Mice were confirmed diabetic if their non-fasted blood glucose level rose above 300 mg/dL for two consecutive daily readings. […]
Xenogeneic transplants of encapsulated rat islets to diabetic mice recipients were performed to examine the reversibility of diabetes. […] Shortly thereafter, islet-containing capsules were sampled in quadruplicate, the total islets number was counted. […]
The subject of the next assay is fibrosis on capsules. As to the kind of experiment: Fibrosis formation on capsules retrieved 60 days after transplantation (observation, DNA fluorescent staining). The format is in vivo, mice. To be noted: FIG. 9.
Assay [2] concerns islet cells in retrieved capsules. As to the kind of experiment: Insulin secretion from retrieved capsules. The format is in vivo. The following applies: 24 hours, FIG. 10.
Description: Sixty days after transplantation of islet-containing capsules, the mice from example 6 were sacrificed by CO2 asphyxiation. A lapratomy was performed to expose the abdominal cavity and capsules were retrieved by an abdominal lavage with HEPES buffer. The abdominal cavity was examined closely to identify remaining capsules, which if found were gently removed using atraumatic tweezers. The retrieved capsules were subsequently washed several times in HEPES buffer and imaged at 2× magnification using an EVOS brightfield microscope (AMG). Finally, capsules were transferred into a 1.5 ml Eppendorf tube, and frozen at −20° C. for future analysis. Insulin secretion was measured from the retrieved capsules for 24 hours.

Structures are written as SMILES.

The values below come from patent US10709667B2, “Hydrogel encapsulated cells and anti-inflammatory drugs” (Massachusetts Institute of Technology, priority 2011, dated 2020).

Description for fibrosis on capsules: Sixty days after transplantation of islet-containing capsules, the mice from example 6 were sacrificed by CO2 asphyxiation. A lapratomy was performed to expose the abdominal cavity and capsules were retrieved by an abdominal lavage with HEPES buffer. The abdominal cavity was examined closely to identify remaining capsules, which if found were gently removed using atraumatic tweezers. The retrieved capsules were subsequently washed several times in HEPES buffer and imaged at 2× magnification using an EVOS brightfield microscope (AMG). Finally, capsules were transferred into a 1.5 ml Eppendorf tube, and frozen at −20° C. for future analysis.
50 μl of retrieved capsules (120-150 alginate capsules) were transferred to each well of a 24-well Millicell® cell culture insert (Millipore) using wide-orifice pipette tips (Fisher Scientific, Pittsburgh, Pa., USA). The capsules were incubated at 37° C. for 45 min in 800 μl of 0.001 mg/ml Hoersch 33342 dye (Invitrogen) prepared from stock solution by dilution with HEPES buffer. Afterwards, these capsules were washed four times with HEPES buffer. […] Finally, fluorescent signals from the stained capsules were obtained using a Tecan UV-VIS absorbance plate reader at with the excitation and emission wavelengths of 350 nm and 460 nm respectively.
A rigorous quantification technique was developed to assess fibrosis on capsules via DNA fluorescent staining. […]

For the compound `COc1cc(/C=C/C(=O)CC(=O)/C=C/c2ccc(O)c(OC)c2)ccc1O` [curcumin], the “insulin secretion from encapsulated islets co-cultured with macrophages” value in the assay with encapsulated islets is listed as “restored insulin secretion”. Besides, in the assay on RAW 264.7 macrophages, the macrophages proliferation result was “hindered macrophages proliferation”. Further, the glycemic control result in assay [1] is “improved glycemic control”. Further, in the assay with fibrosis on capsules, the “fibrosis by DNA fluorescence of retrieved capsules” value is listed as “reduced fibrosis with statistical significance”. Moreover, in assay [2], the “insulin secretion from retrieved capsules” value is reported as “greatly improved insulin secretion”.
